pIC50: −log10 of the molar value. “Also recorded” adds a separate entry of the source. Like-named read-outs stand apart in the source and are kept apart here.
Assays:
[1] = molecular target: T1, 11β-HSD2 (Ovis aries, UniProt P50168); assay: 11β-HSD2 enzyme activity in sheep kidney microsomes; format: biochemical; conditions: for inhibitors of 11β-HSD2 (summary in words): summary of the screening
T1 construct: incubating sheep kidney microsomal fraction (6.5 μg protein) with 50 nM corticosterone; from tissue; host or cells: sheep kidney microsomal fraction
T1 sequence (P50168 1-427): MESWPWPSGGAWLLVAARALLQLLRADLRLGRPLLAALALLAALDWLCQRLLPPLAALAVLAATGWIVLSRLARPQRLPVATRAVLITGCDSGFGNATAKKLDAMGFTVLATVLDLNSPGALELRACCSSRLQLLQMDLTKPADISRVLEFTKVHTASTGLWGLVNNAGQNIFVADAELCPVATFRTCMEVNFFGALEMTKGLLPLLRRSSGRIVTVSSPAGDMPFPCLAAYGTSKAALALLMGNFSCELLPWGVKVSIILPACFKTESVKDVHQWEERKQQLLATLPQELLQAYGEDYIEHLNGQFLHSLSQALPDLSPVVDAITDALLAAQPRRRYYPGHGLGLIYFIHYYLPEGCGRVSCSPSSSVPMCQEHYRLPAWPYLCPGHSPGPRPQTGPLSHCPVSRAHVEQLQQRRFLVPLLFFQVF
Text: The enzymatic reaction was termninated by addition of methanol and synthesis of 11-dehydro-corticosterone was quantitated by HPLC as described above.

[2] = molecular target: T2, 11β-HSD1 Reductase (Rattus norvegicus, UniProt P16232); assay: Table 1: inhibition of 11β-HSD1 reductase; format: biochemical; conditions: Table 1, inhibition in words
[3] = molecular target: T3, 11β-HSD1 Dehydrogenase (Rattus norvegicus, UniProt P16232); assay: Table 1: inhibition of 11β-HSD1 dehydrogenase; format: biochemical; conditions: Table 1, inhibition in words
[4] = molecular target: T4, 11β-HSD2 Dehydrogenase (Ovis aries, UniProt P50168); assay: Table 1: inhibition of 11β-HSD2 dehydrogenase; format: biochemical; conditions: Table 1, inhibition in words
T4 sequence (P50168 1-427): T1 sequence (P50168 1-427)

[5] = molecular target: T2, 11β-HSD1 Reductase; assay: 11β-HSD1 reductase assay in rat Leydig cell homogenates; conditions: for Leydig Cell 11β-HSD1 Reductase [S]= 600 nM: rat Leydig cell homogenates, 600 nM 11-dehydro-corticosterone;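 on all read-outs here: rat Leydig cell homogenate incubated 20 min at 37 °C, pH 7.4, with tritiated 11-dehydro-corticosterone and 3 mM NADPH, product measured by HPLC, inhibition from triplicate dose–response curves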
Procedure: Each enzyme reaction (described below) was stopped by adding 750 μL MeOH. After centrifugation, an aliquot of supernatant was analyzed by HPLC using a DuPont Zorbax C8 column.
11β-HSD1 dehydrogenase was assayed by incubating homogenates (13,000 cells equivalent) with 600 nM [^3H]-B (0.5 μCi) in the presence of 3 mM NADP, 50 mM Tris-HCl; pH 8.4 at 37° C. for 10 minutes in a total volume of 250 μL. 11β-HSD1 reductase was assayed by incubating homogenates (52,000 cells equivalent) with 600 nM [^3H]-11-dehydro-corticosterone in presence of 3 mM NADPH, 50 mM Tris-HCl; pH 7.4 at 37° C. for 20 minutes in a total volume of 250 μL.
Each concentration was tested in triplicate and the dose response curve, showing percentage inhibition versus log concentration of steroid was plotted. The data fitted a log-linear straight line.

[6] = molecular target: T3, 11β-HSD1 Dehydrogenase; assay: 11β-HSD1 dehydrogenase assay in rat Leydig cell homogenates; format: biochemical; parameters: Freshly prepared rat Leydig cell homogenates were chosen since they provide a rich and reliable source of both 11β-HSD1 dehydrogenase and reductase; from tissue; host or cells: rat testicular Leydig cells, homogenate; conditions: for Leydig Cell 11β-HSDl Dehydrogenase [S] = 600 nM: progesterone and androgen derivatives; for inhibitors of 11β-HSD1 dehydrogenase (summary in words): summary of the screening;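 on all read-outs here: tritiated corticosterone conversion by 11β-HSD1 dehydrogenase in Leydig homogenates with 3 mM NADP at pH 8.4, 37 °C for 10 min, products resolved by HPLC, inhibition relative to uninhibited enzyme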
[7] = tested on: rat aortic rings; assay: Contractile response of rat aortic rings to phenylephrine; format: cell-based; conditions: rings incubated 24 h with steroid (corticosterone 10 nmol/L; 11-dehydro-corticosterone 100 nmol/L)
Procedure: Male Sprague-Dawley (150-200 g) rats were anesthetized with pentobarbital (50 mg/kg IP), and a median sternotomy was performed followed by the rapid removal of the thoracic aorta. The adventitia was removed, but the endothelium was left intact. The aorta was cut into 2-3 mm rings and individual rings were placed into a single well of a twenty four well culture plate and incubated at 37° C. under 95% 02-5% CO2. Each well contained 1 mL of DMEM/F12 containing 1% fetal bovine serum, streptomycin (100 μg/ml), penicillin (100 units/ml) and amphotericin (0.25 μg/ml). Aortic rings were incubated for 24 hours prior to contractility measurements with the following combinations of steroids, and antisense/nonsense oligonucleotides (3 μmol/L):
Antisense phosphorothioate oligonucleotides, targeted to block either 11β-HSD2 or 11β-HSD1 gene expression, were obtained from Research Genetics, Huntsville Ala. Antisense oligomers complementary to 20 bp sequences spanning the ribosome binding/translation start site were used. Oligomer sequences were: 5′-CATAACTGCCGTCCAACAGC-3′ (SEQ ID NO. 1) for 11β-HSD1 Antisense and 5′-AGGCCAGCGCTCCATGACTT-3′ (SEQ ID NO 2) for 11β-HSD2 antisense. In control experiments the corresponding sense sequence was used as the nonsense oligomer. Antisense and nonsense oligomers were added directly to each well at 20 μg/10:1 sterile H2O per well for a final concentration of 3 μmol/L.
For contraction measurements, aortic rings were suspended by tungsten wires with 1 g of tension and placed in a vessel bath containing serum free DMEM/F12 media at 37° C. aerated with 95% O2-5% CO2, at pH 7.4. Vessels were equilibrated for 20 minutes and then tested with phenylephrine (1 nmol/L-10 μmol/L). Although phenylephrine is structurally not a catecholamine, it is considered to be a functional catecholamine as it activates both a and P adrenoceptors. Due to its favorable stability characteristics, it is widely used as a catecholamine substitute in experiments of this nature. The intensity of contraction was assessed by use of a Narishige micromanipulator and model FT03 force transducer (Grass Instrument Co. West Warwick, R.I.). Measurements were recorded on computer using the Labview 4.1 Virtual Instrument System (National Instruments, Austin, Tex.).

[8] = rat Leydig cell homogenates, 600 nM corticosterone
[9] = 11β-HSD2, sheep kidney microsomes, 50 nM corticosterone, NAD+, aldosterone, cortisol, corticosterone series, read-out: Dehydrogenase [S] = 50 nM
[10] = rat Leydig cell homogenates, 600 nM corticosterone, NADP, corticosteroid series, read-out: Leydig Cell 11β-HSD1 Dehydrogenase [S]= 600 nM

T3 sequence (P16232 whole entry): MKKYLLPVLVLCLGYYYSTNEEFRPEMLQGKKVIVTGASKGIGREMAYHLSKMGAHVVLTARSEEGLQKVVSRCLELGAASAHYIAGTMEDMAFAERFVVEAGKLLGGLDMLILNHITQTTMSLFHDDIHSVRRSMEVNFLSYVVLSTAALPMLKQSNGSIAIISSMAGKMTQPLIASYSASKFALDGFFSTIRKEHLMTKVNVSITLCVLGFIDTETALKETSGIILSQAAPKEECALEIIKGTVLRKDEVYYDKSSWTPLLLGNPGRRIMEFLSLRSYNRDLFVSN
T2 sequence (P16232 whole entry): as above

Row | Structure (SMILES) | pIC50 [1] | 11β-HSD1 Reductase [2] | 11β-HSD1 Dehydrogenase [3] | 11β-HSD2 Dehydrogenase [4] | pIC50 [5] | pIC50 [6] | pIC50 [1, 9] | inhibitors of 11β-HSD2 (summary in words) [1] | pIC50 [6, 10] | inhibitors of 11β-HSD1 dehydrogenase (summary in words) [6] | further results
1 | C[C@]12CCC(=O)C=C1CC[C@@H]1[C@H]2C(=O)C[C@]2(C)C(=O)CC[C@H]12 (stereo in doubt) [11 -Keto-Androstenedione, 4-Androsten-11,3,17-trione] | < 5.00 | Selective Inhibitor | No Inhibition | No Inhibition | 4.68 | < 4.00 | – | – | – | – | Sheep kidney 11β-HSD2 [S] = 50 nM ([1]; sheep kidney microsomes, corticosterone substrate, progesterone and androgen derivatives): inactive; Leydig Cell 11β-HSDl Dehydrogenase [S] = 600 nM [6, 8]: inactive
2 | C[C@]12CC[C@@H](O)C[C@H]1CC[C@@H]1[C@H]2C(=O)C[C@]2(C)[C@@H](C(=O)CO)CC[C@@H]12 [3α,5α-TH-11-dehydrocorticosterone, 5α-Pregnan-3α,21-diol-11,20-dione] | – | Potent Inhibitor | No Inhibition | Potent Inhibitor | 6.15 | – | 6.10 | potent inhibitors; also recorded: high potency | 5.10 | – | inhibitors of 11β-HSD1 reductase (summary in words) ([5]; summary of the screening): potent inhibitors; also recorded: high potency
3 | C[C@]12CC[C@@H](O)C[C@H]1CC[C@@H]1[C@H]2[C@@H](O)C[C@]2(C=O)[C@@H](C(=O)CO)CC[C@@H]12 [3α,5α-TH-Aldosterone, 5α-Pregnan-3α,11β,21-triol-20-one-18-al] | – | No Inhibition | Moderate Inhibitor | Potent Inhibitor | < 4.00 | – | 6.30 | – | 4.60 | – | inhibitors of 11β-HSD2 (summary in words) ([1]; listed as 3α,5α-TH -aldosterone): potent inhibitors; inhibitors of 11β-HSD2 (summary in words) ([1]; listed as 3α,5α-TH-aldosterone): high potency; Leydig Cell 11β-HSD1 Reductase [S]= 600 nM ([5]; NADPH, corticosteroid series): inactive
4 | C[C@]12CC[C@@H](O)C[C@H]1CC[C@@H]1[C@H]2[C@@H](O)C[C@]2(C)[C@@H](C(=O)CO)CC[C@@H]12 [3α,5α-TH-Corticosterone, 5α-Pregnan-3α,11β,21-triol-20-one] | – | No Inhibition | Potent Inhibitor | Potent Inhibitor | – | – | 6.59 | potent inhibitors; also recorded: high potency | 5.89 | potent inhibitors; also recorded: high potency | Leydig Cell 11β-HSD1 Reductase [S]= 600 nM ([5]; NADPH, corticosteroid series): weak inhibitor
5 | C[C@]12CCC(=O)C[C@H]1CC[C@@H]1[C@H]2[C@@H](O)C[C@]2(C)[C@@H](C(=O)CO)CC[C@@H]12 [5α-DH-Corticosterone, 5α-Pregnan-11β,-21-diol-3,20-dione] | 6.82 | No inhibition | Potent Inhibitor | Potent Inhibitor | 5.20 | 5.68 | – | potent inhibitors; also recorded: high potency | – | potent inhibitors; also recorded: high potency | –
6 | C[C@]12CC(=O)[C@@H]3[C@@H](CCC4=CC(=O)CC[C@@]43C)[C@H]1CC[C@@H]2O [11 -Keto-Testosterone, 4-Androsten-17β-ol-11,3-dione] | 5.87 | Selective Inhibitor | No Inhibition | No Inhibition | 4.74 | < 4.00 | – | potent inhibitors; also recorded: high potency | – | – | Leydig Cell 11β-HSDl Dehydrogenase [S] = 600 nM [6, 8]: inactive
7 | C[C@]12CC(=O)[C@H]3[C@@H](CCC4=CC(=O)CC[C@@]43C)[C@@H]1CC[C@@H]2C(=O)CO [11-dehydro-corticosterone] | – | – | – | – | – | – | 6.33 | potent inhibitors; also recorded: high potency | < 4.00 | – | amplification of the contractile response to phenylephrine by the steroid [7]: amplified the contractile response
8 | C[C@]12C[C@H](O)[C@@H]3[C@@H](CCC4=CC(=O)CC[C@@]43C)[C@H]1CC[C@@H]2O [11β-OH-Testosterone, 4-Androsten-11β,17β-diol-3-one] | 6.46 | No Inhibition | Inhibitor (Non-Selective) | Inhibitor (Non-Selective) | < 4.00 | 5.05 | – | – | – | potent inhibitors | inhibitors of 11β-HSD2 (summary in words) ([1]; listed as 11β-OH-testosterone): potent inhibitors; also recorded: high potency; Leydig Cell 11β-HSD1 Reductase [S]= 600 nM ([5]; progesterone and androgen derivatives): inactive; inhibitors of 11β-HSD1 dehydrogenase (summary in words) ([6]; listed as 11β-OH-testosterone): high potency; inhibitors of 11β-HSD1 dehydrogenase (summary in words) ([6]; listed as 11β-hydroxy-testosterone): potently inhibit
9 | C[C@H](CCC(=O)O)[C@H]1CC[C@H]2[C@@H]3[C@H](O)C[C@@H]4C[C@H](O)CC[C@]4(C)[C@H]3CC[C@]12C [chenodeoxycholic acid] | – | No Inhibition | Selective inhibitor | No Inhibition | – | – | – | – | – | – | –
10 | C[C@]12C[C@H](O)[C@H]3[C@@H](CCC4=CC(=O)CC[C@@]43C)[C@@H]1CC[C@@H]2C(=O)CO [corticosterone, reference compound] | – | – | – | – | – | – | – | – | – | – | amplification of the contractile response to phenylephrine by the steroid [7]: amplified contractile responses
